Source: the NIST ThermoML archive (doi:10.1016/j.fluid.2007.07.016)

Assay: xn = mol fraction of the nth substance listed
Conditions: 101 kPa, Liquid; for viscosity: Capillary tube (Ostwald / Ubbelohde) method; for speed of sound: Linear variable-path acoustic interferometer

C1CCOC1 [tetrahydrofuran] + c1ccccc1
Conditions | speed of sound, 288.15 K [m/s] | speed of sound, 298.15 K [m/s] | speed of sound, 308.15 K [m/s] | speed of sound, 318.15 K [m/s] | viscosity, 288.15 K [mPa·s] | viscosity, 298.15 K [mPa·s] | viscosity, 308.15 K [mPa·s] | viscosity, 318.15 K [mPa·s]
x1 = 0.0754 | 1351.7 | 1302.5 | 1256 | 1206.1 | 0.6847 | 0.5973 | 0.536 | 0.4667
x1 = 0.1518 | 1350.7 | 1301.4 | 1254.7 | 1205.1 | 0.6762 | 0.5921 | 0.533 | 0.4665
x1 = 0.223 | 1349.8 | 1300.6 | 1253.6 | 1204.3 | 0.6673 | 0.5863 | 0.529 | 0.4659
x1 = 0.2962 | 1348.5 | 1299.3 | 1252.2 | 1203.2 | 0.6573 | 0.5793 | 0.5237 | 0.4637
x1 = 0.3556 | 1347.4 | 1298.4 | 1251.3 | 1202.5 | 0.6484 | 0.5728 | 0.5186 | 0.4609
x1 = 0.4128 | 1346.3 | 1297.5 | 1250.3 | 1201.8 | 0.6394 | 0.5659 | 0.5128 | 0.4574
x1 = 0.4812 | 1344.6 | 1296 | 1248.8 | 1200.7 | 0.6277 | 0.5568 | 0.505 | 0.4522
x1 = 0.5506 | 1342.7 | 1294.3 | 1247.1 | 1199.4 | 0.6151 | 0.5467 | 0.4961 | 0.4457
x1 = 0.6219 | 1340.5 | 1292.4 | 1245.1 | 1197.8 | 0.6013 | 0.5353 | 0.4858 | 0.4379
x1 = 0.6884 | 1338 | 1290.2 | 1243 | 1196.1 | 0.5875 | 0.5237 | 0.4752 | 0.4295
x1 = 0.7512 | 1335.3 | 1287.9 | 1240.8 | 1194.4 | 0.5739 | 0.512 | 0.4643 | 0.4207
x1 = 0.8119 | 1332.7 | 1285.5 | 1238.6 | 1192.7 | 0.56 | 0.4999 | 0.4529 | 0.4112
x1 = 0.8792 | 1329.3 | 1282.7 | 1236.1 | 1190.7 | 0.5439 | 0.4857 | 0.4394 | 0.3996
x1 = 0.9388 | 1326.3 | 1280.1 | 1233.8 | 1188.9 | 0.5289 | 0.4724 | 0.4265 | 0.3885
x1 = 1 | 1323.1 | 1277.6 | 1231.5 | 1187.2 | 0.5129 | 0.458 | 0.4125 | 0.3762

Cc1ccc(C)cc1 [1,4-dimethylbenzene] + C1CCOC1
Conditions | speed of sound, 288.15 K [m/s] | speed of sound, 298.15 K [m/s] | speed of sound, 308.15 K [m/s] | speed of sound, 318.15 K [m/s] | viscosity, 288.15 K [mPa·s] | viscosity, 298.15 K [mPa·s] | viscosity, 308.15 K [mPa·s] | viscosity, 318.15 K [mPa·s]
x2 = 0 | 1357.5 | 1316.4 | 1268 | 1230.3 | 0.7084 | 0.611 | 0.5501 | 0.4912
x2 = 0.084 | 1356 | 1314.1 | 1265.7 | 1227.2 | 0.6971 | 0.6047 | 0.5453 | 0.4891
x2 = 0.1716 | 1354.2 | 1311.7 | 1263.2 | 1224 | 0.6842 | 0.5954 | 0.5385 | 0.4849
x2 = 0.2322 | 1353.1 | 1310.1 | 1261.6 | 1221.9 | 0.6755 | 0.5895 | 0.5339 | 0.4819
x2 = 0.2934 | 1351.7 | 1308.3 | 1259.9 | 1219.6 | 0.6656 | 0.5825 | 0.528 | 0.4777
x2 = 0.3548 | 1350.2 | 1306.5 | 1258.1 | 1217.3 | 0.6552 | 0.5748 | 0.5214 | 0.4727
x2 = 0.4284 | 1348.1 | 1304 | 1255.7 | 1214.5 | 0.642 | 0.5648 | 0.5127 | 0.4658
x2 = 0.4896 | 1346.2 | 1301.8 | 1253.7 | 1212 | 0.6304 | 0.5558 | 0.5047 | 0.4592
x2 = 0.5518 | 1344.1 | 1299.4 | 1251.5 | 1209.3 | 0.6181 | 0.5461 | 0.4959 | 0.4518
x2 = 0.6201 | 1341.5 | 1296.6 | 1248.8 | 1206.2 | 0.6039 | 0.5347 | 0.4854 | 0.4428
x2 = 0.6825 | 1338.9 | 1293.7 | 1246.2 | 1203.3 | 0.5904 | 0.5237 | 0.4751 | 0.4337
x2 = 0.7414 | 1336.3 | 1290.9 | 1243.6 | 1200.4 | 0.5767 | 0.5127 | 0.4647 | 0.4245
x2 = 0.8102 | 1333.1 | 1287.6 | 1240.6 | 1197 | 0.5609 | 0.4991 | 0.4518 | 0.4128
x2 = 0.8756 | 1329.8 | 1284.3 | 1237.5 | 1193.7 | 0.545 | 0.4855 | 0.4388 | 0.4009
x2 = 0.9409 | 1326.4 | 1280.8 | 1234.4 | 1190.4 | 0.5284 | 0.4713 | 0.425 | 0.3881

Cc1ccccc1C [1,2-dimethylbenzene] + C1CCOC1
Conditions | speed of sound, 288.15 K [m/s] | speed of sound, 298.15 K [m/s] | speed of sound, 308.15 K [m/s] | speed of sound, 318.15 K [m/s] | viscosity, 288.15 K [mPa·s] | viscosity, 298.15 K [mPa·s] | viscosity, 308.15 K [mPa·s] | viscosity, 318.15 K [mPa·s]
x2 = 0 | 1388.5 | 1350.3 | 1321.4 | 1285.8 | 0.8623 | 0.7576 | 0.669 | 0.5972
x2 = 0.0764 | 1384.3 | 1345.1 | 1314.5 | 1277.9 | 0.8385 | 0.738 | 0.6535 | 0.585
x2 = 0.1504 | 1380 | 1340 | 1307.8 | 1270.2 | 0.8155 | 0.7192 | 0.6384 | 0.573
x2 = 0.2243 | 1375.7 | 1335 | 1301.1 | 1262.7 | 0.7919 | 0.6998 | 0.6226 | 0.5602
x2 = 0.2942 | 1371.4 | 1330 | 1294.8 | 1255.6 | 0.769 | 0.6807 | 0.6067 | 0.5471
x2 = 0.366 | 1366.9 | 1324.9 | 1288.3 | 1248.4 | 0.7451 | 0.6606 | 0.59 | 0.5331
x2 = 0.4226 | 1363.4 | 1320.9 | 1283.2 | 1242.8 | 0.726 | 0.6445 | 0.5764 | 0.5216
x2 = 0.4801 | 1359.7 | 1316.7 | 1278 | 1237.1 | 0.7063 | 0.6277 | 0.5621 | 0.5094
x2 = 0.531 | 1356.3 | 1313 | 1273.4 | 1232.1 | 0.6888 | 0.6127 | 0.5493 | 0.4981
x2 = 0.585 | 1352.6 | 1309 | 1268.5 | 1226.8 | 0.6694 | 0.5959 | 0.5348 | 0.4856
x2 = 0.6578 | 1347.6 | 1303.6 | 1262 | 1219.7 | 0.6432 | 0.5731 | 0.515 | 0.4684
x2 = 0.7322 | 1342.5 | 1298 | 1255.4 | 1212.5 | 0.6159 | 0.5493 | 0.4941 | 0.4498
x2 = 0.8049 | 1337.4 | 1292.5 | 1248.9 | 1205.6 | 0.5887 | 0.5253 | 0.4729 | 0.431
x2 = 0.8708 | 1332.6 | 1287.5 | 1243 | 1199.3 | 0.5635 | 0.503 | 0.453 | 0.413
x2 = 0.9392 | 1327.7 | 1282.3 | 1236.9 | 1192.9 | 0.537 | 0.4794 | 0.4319 | 0.394
